Series [1] can be described thus: log P (neutral) by HPLC on reversed-phase column (C 18), EEC Directive 79/831 Annex V.A8. The series is classed as physicochemical. The note with it: HPLC reversed-phase C 18, 55° C., neutral range pH 7.8, ammonium hydrogencarbonate/acetonitrile; for chromatographic logP: reversed-phase HPLC column (C 18).
Series [2] has as its system larvae of the mustard beetle (Phaedon cochleariae). The series can be described thus: Phaedon cochleariae - spray test. Type of series: in vivo. Particulars: application rate 500 g/ha, Chinese cabbage leaf discs, after 7 days. The method, then:
(§1) Solvent: 78.0 parts by weight of acetone • • 1.5 parts by weight of dimethylformamide
(§2) Emulsifier: alkylaryl polyglycol ether
(§3) To produce a suitable active compound preparation, 1 part by weight of active compound is dissolved with the stated parts by weight of solvent and made up with water containing an emulsifier concentration of 1000 ppm until the desired concentration is attained. To produce further test concentrations, the preparation is diluted with emulsifier-containing water.
After 7 days, the efficacy in % is determined. 100% means that all the beetle larvae have been killed; 0% means that no beetle larvae have been killed.

For series [3], the system named is L1 larvae of the Australian sheep blowfly (Lucilia cuprina). The series can be described thus: Lucilia cuprina test. The note with it: application rate 100 ppm, after 2 days. Type of series: in vivo. The procedure: (§4) Solvent: dimethyl sulphoxide
(§5) To produce a suitable active compound preparation, 10 mg of active compound are mixed with 0.5 ml of dimethyl sulphoxide, and the concentrate is diluted with water to the desired concentration.
About 20 L1 larvae of the Australian sheep blowfly (Lucilia cuprina) are transferred into a test vessel containing minced horsemeat and the active compound preparation of the desired concentration.
After 2 days, the kill in % is determined. 100% means that all the larvae have been killed; 0% means that no larvae have been killed.

Series [4] deals with caterpillars of the armyworm (Spodoptera frugiperda). The series can be described thus: Spodoptera frugiperda - spray test. Type of series: in vivo. Particulars: application rate 500 g/ha, maize leaf discs, after 7 days. The method, then:
as §1, §2, §3
Leaf discs of maize (Zea mays) are sprayed with an active compound preparation of the desired concentration and, after drying, populated with caterpillars of the armyworm (Spodoptera frugiperda).
After 7 days, the efficacy in % is determined. 100% means that all the caterpillars have been killed; 0% means that no caterpillar has been killed.

Series [5] concerns adult houseflies (Musca domestica). The series is described as follows: Musca domestica test. The series is classed as in vivo. Particulars: application rate 100 ppm, after 2 days. The method, then:
as §4, §5
Vessels containing a sponge treated with sugar solution and the active compound preparation of the desired concentration are populated with 10 adult houseflies (Musca domestica).
After 2 days, the kill in % is determined. 100% means that all of the flies have been killed; 0% means that none of the flies have been killed.

For series [6], the system named is engorged adult female cattle ticks (Boophilus microplus). The series is described as follows: Boophilus microplus - injection test. Type of series: in vivo. Particulars: application rate 20 μg/animal, assessed after 7 days. The procedure:
as §4
To produce a suitable active compound preparation, 10 mg of active compound are mixed with 0.5 ml of solvent and the concentrate is diluted with solvent to the desired concentration.
1 μl of the active compound solution is injected into the abdomen of 5 engorged adult female cattle ticks (Boophilus microplus). The animals are transferred into dishes and kept in a climate-controlled room.
Efficacy is assessed after 7 days by laying of fertile eggs. Eggs which are not visibly fertile are stored in a climate-controlled cabinet until the larvae hatch after about 42 days. An efficacy of 100% means that none of the ticks has laid any fertile eggs; 0% means that all the eggs are fertile.

For series [7], the system named is unfed adult cat fleas (Ctenocephalides felis). The series can be described thus: Ctenocephalides felis - oral test. Type of series: in vivo. The note with it: application rate 100 ppm in citrated cattle blood, after 2 days. The procedure: as §4
To produce a suitable active compound preparation, 10 mg of active compound are mixed with 0.5 ml of dimethyl sulphoxide. Dilution with citrated cattle blood gives the desired concentration.
About 20 unfed adult cat fleas (Ctenocephalides felis) are placed into a chamber which is closed at the top and bottom with gauze. A metal cylinder whose bottom end is closed with parafilm is placed onto the chamber. The cylinder contains the blood/active compound preparation, which can be imbibed by the fleas through the parafilm membrane.
After 2 days, the kill in % is determined. 100% means that all of the fleas have been killed; 0% means that none of the fleas have been killed.

Series [8] relates to green peach aphid (Myzus persicae). The series is described as follows: Myzus persicae - spray test. The note with it: application rate 500 g/ha, Chinese cabbage leaf discs, after 5-6 days. Type of series: in vivo. The procedure:
Solvent: 78 parts by weight of acetone • • 1.5 parts by weight of dimethylformamide
as §2, §3
Discs of Chinese cabbage leaves (Brassica pekinensis) infested by all stages of the green peach aphid (Myzus persicae) are sprayed with an active compound preparation of the desired concentration.
After 5-6 days, the efficacy in % is determined. 100% means that all the aphids have been killed; 0% means that no aphids have been killed.

Series [9] concerns southern root-knot nematode (Meloidogyne incognita). The series can be described thus: Meloidogyne incognita test. Type of series: in vivo. Particulars: application rate 20 ppm, lettuce, after 14 days. The method, then:
Solvent: 125.0 parts by weight of acetone
To produce a suitable preparation of active compound, 1 part by weight of active compound is mixed with the stated amount of solvent and the concentrate is diluted with water to the desired concentration.
Vessels are filled with sand, active compound solution, an egg/larvae suspension of the southern root-knot nematode (Meloidogyne incognita) and lettuce seeds. The lettuce seeds germinate and the plants develop. The galls develop on the roots.
After 14 days, the nematicidal efficacy in % is determined by the formation of galls. 100% means that no galls were found; 0% means that the number of galls on the treated plants corresponds to the untreated control.

Series [10] has as its system adult cat fleas (Ctenocephalides felis). The series is described as follows: Ctenocephalides felis - in vitro contact tests with adult cat fleas. Particulars: application rate 5 μg/cm^2 (500 g/ha), after 48 h. The series is classed as in vivo. The method, then:
For the coating of the test tubes, 9 mg of active compound are first dissolved in 1 ml of acetone p.a. and then diluted to the desired concentration with acetone p.a. 250 μl of the solution are distributed homogeneously on the inner walls and the base of a 25 ml test tube by turning and rocking on an orbital shaker (rocking rotation at 30 rpm for 2 h). With 900 ppm active compound solution and internal surface 44.7 cm^2, given homogeneous distribution, an area-based dose of 5 μg/cm^2 is achieved.
After the solvent has evaporated off, the tubes are populated with 5-10 adult cat fleas (Ctenocephalides felis), sealed with a perforated plastic lid and incubated in a horizontal position at room temperature and ambient humidity. After 48 h, efficacy is determined. To this end, the test tubes are stood upright and the fleas are knocked to the base of the tube. Fleas which remain motionless at the base or move in an uncoordinated manner are considered to be dead or moribund.
100% efficacy means that all the fleas were dead or moribund. 0% efficacy means that no fleas were harmed.

For series [11], the system named is greenhouse red spider mite (Tetranychus urticae). The series can be described thus: Tetranychus urticae - spray test, OP-resistant. The note with it: application rate 500 g/ha, bean leaf discs, after 6 days. Type of series: in vivo. The method, then: as §1, §2, §3
Discs of bean leaves (Phaseolus vulgaris) infested with all stages of the greenhouse red spider mite (Tetranychus urticae) are sprayed with an active compound preparation of the desired concentration.
After 6 days, the efficacy in % is determined. 100% means that all the spider mites have been killed; 0% means that no spider mites have been killed.

These results are taken from patent US10745398B2, “2-(het)aryl-substituted fused heterocycle derivatives as pesticides” (Bayer CropScience Aktiengesellschaft, priority 2015, dated 2020).

As to `CCS(=O)(=O)c1ccc(-n2cnn(-c3ccc(Cl)cc3Cl)c2=O)nc1-c1nc2cc(C(F)(F)F)ncc2n1C` [Example I-2, 2-(2,4-Dichlorophenyl)-4-[5-ethylsulfonyl-6-[3-methyl-6-(trifluoromethyl)imidazo[4,5-c]pyridin-2-yl]-2-pyridyl]-1,2,4-triazol-3-one], the chromatographic logP – broadly, lipophilicity estimated from chromatographic retention – in series [1] stood at 3.71. The “efficacy (beetle larvae killed)” value in [2] worked out at 100%. The “efficacy (kill in %)” value is given as 100% in series [3] and 90% in series [5]. Moreover, the “efficacy (caterpillars killed)” value in [4] turned out to be 100%.

With `CCS(=O)(=O)c1ccc(-n2ccn(-c3ccc(Br)cc3)c2=O)nc1-c1nc2cc(C(F)(F)F)ncc2n1C` [Example I-3], the “log P (neutral)” value in [1] is listed as “Example I-3: logP (neutral): 3.87 ^1H-NMR(400.0 MHz, d6-DMSO): δ =”. Besides, the “efficacy (beetle larvae killed)” value in series [2] was 100%. Besides, in series [6], the “efficacy (no laying of fertile eggs)” value amounted to 95%. For the same compound, the “efficacy (kill in %)” value in series [3] turned out to be 100%; in [7] it was 100%; in series [5] it was 90%. The “efficacy (caterpillars killed)” value in series [4] is reported as 100%. Also, the “efficacy (aphids killed)” value in series [8] was determined as 90%.

On to `CCS(=O)(=O)c1ccc(-n2ncn(-c3ccc(F)cc3)c2=O)nc1-c1nc2cc(C(F)(F)F)ncc2n1C` [Example I-8], for which the “log P (neutral)” value in series [1] is recorded as “Example I-8: logP (neutral): 2.75 ^1H-NMR(400.0 MHz, d6-DMSO): δ =”. Also, the “efficacy (beetle larvae killed)” value in series [2] is recorded as 100%. Further, in [9], the “nematicidal efficacy (formation of galls)” value (“nematicidal efficacy” for short) was 90%. In series [4], the “efficacy (caterpillars killed)” value turned out to be 100%. The “efficacy (aphids killed)” value in series [8] is 100%.

Consider `CCS(=O)(=O)c1ccc(-n2ncn(-c3ccc(Br)cc3)c2=O)nc1-c1nc2cc(C(F)(F)F)ncc2n1C` [Example I-16], for which the “efficacy (beetle larvae killed)” value in [2] amounted to 100%. Moreover, the “efficacy (kill in %)” value turned out to be 100% in series [3], 100% in series [7] and 80% in [5]. In addition, the “efficacy (caterpillars killed)” value in series [4] was found to be 100%.

With `CCS(=O)(=O)c1ccc(-n2ncn(-c3ccccc3F)c2=O)nc1-c1nc2cc(C(F)(F)F)ncc2n1C` [Example I-18], in series [1], the “log P (neutral)” value was “Example I-18: logP (neutral): 2.73: 1H-NMR(400.0 MHz, d6-DMSO): □ =”. In addition, the “efficacy (beetle larvae killed)” value in series [2] is 100%. Further, in [6], the “efficacy (no laying of fertile eggs)” value was 95%. In addition, the “efficacy (kill in %)” value in [3] is reported as 100%; in series [7], 100%; in series [5] it was 85%. Also, the “efficacy (fleas dead or moribund)” value in series [10] was determined as 100%. The “efficacy (caterpillars killed)” value in series [4] is 100%. Further, the “efficacy (aphids killed)” value in series [8] came to 90%.

With `CCS(=O)(=O)c1ccc(-n2ncn(-c3ccc(Cl)cc3)c2=O)nc1-c1nc2cc(C(F)(F)F)ncc2n1C` [Example I-19], the “log P (neutral)” value in [1] is “Example I-19: logP (neutral): 2.82 1H-NMR(400.0 MHz, d6-DMSO): □ =”. The “efficacy (beetle larvae killed)” value in series [2] turned out to be 100%. In addition, the “efficacy (no laying of fertile eggs)” value in [6] stood at 80%. Further, the “efficacy (kill in %)” value is 100% in series [3], 100% in [7] and 80% in series [5]. In addition, in series [4], the “efficacy (caterpillars killed)” value is on record as 100%.

As to `CCS(=O)(=O)c1ccc(-n2ccc(-c3ncccc3Cl)n2)nc1-c1nc2cc(C(F)(F)F)ncc2n1C` [Example I-24], in series [1], the “log P (neutral)” value is reported as “Example I-24: logP (neutral): 2.80 1H-NMR(400.0 MHz, d6-DMSO): □ =”. Besides, the “efficacy (beetle larvae killed)” value in [2] is 100%. Besides, the “efficacy (kill in %)” value in series [3] is recorded as 100%. Moreover, in series [10], the “efficacy (fleas dead or moribund)” value is reported as 100%. In series [4], the “efficacy (caterpillars killed)” value came to 100%.

`CCS(=O)(=O)c1ccc(-c2ccn(-c3cccnc3)n2)nc1-c1nc2cc(C(F)(F)F)ncc2n1C` [Example I-30, 2-{3-(Ethylsulfonyl)-6-[1-(pyridin-3-yl)-1H-pyrazol-3-yl]pyridin-2-yl}-3-methyl-6-(trifluoromethyl)-3H-imidazo[4,5-c]pyridine] yielded a chromatographic logP in series [1] of 2.73. Moreover, the “efficacy (beetle larvae killed)” value in series [2] was 100%. The “nematicidal efficacy” value in series [9] was found to be 90%. Moreover, the “efficacy (kill in %)” value in series [3] worked out at 100%. Moreover, the “efficacy (caterpillars killed)” value in series [4] worked out at 100%. For the same compound, the “efficacy (aphids killed)” value in [8] is 100%.

As for `CCS(=O)(=O)c1ccc(-n2cnn(-c3ccccc3F)c2=O)nc1-c1nc2cc(C(F)(F)F)cnc2n1C` [Example I-32], in [1], the “log P (neutral)” value is “Example I-32: logP (neutral): 3.52 1H-NMR(400.0 MHz, d6-DMSO): □ =”. Besides, the “efficacy (beetle larvae killed)” value in series [2] stood at 100%. In addition, the “efficacy (no laying of fertile eggs)” value in series [6] is on record as 80%. Besides, the “efficacy (kill in %)” value in series [3], in series [7] and in series [5] was 100% in each case. The “efficacy (caterpillars killed)” value in series [4] is listed as 100%. Further, the “efficacy (aphids killed)” value in series [8] is given as 90%.

`CCS(=O)(=O)c1ccc(-n2ncn(-c3ccc(Cl)cc3)c2=O)nc1-c1nc2cc(C(F)(F)F)cnc2n1C` [Example I-33, 4-(4-Chlorophenyl)-2-{5-(ethylsulfonyl)-6-[3-methyl-6-(trifluoromethyl)-3H-imidazo[4,5-b]pyridin-2-yl]pyridin-2-yl}-2,4-dihydro-3H-1,2,4-triazol-3-one] returned a chromatographic logP in series [1] of 3.52. Moreover, in series [2], the “efficacy (beetle larvae killed)” value is listed as 100%. Also, the “nematicidal efficacy” value in series [9] came out at 100%. The “efficacy (spider mites killed)” value in series [11] worked out at 90%. Besides, the “efficacy (caterpillars killed)” value in series [4] was determined as 100%. Besides, the “efficacy (aphids killed)” value in series [8] was determined as 90%.
